Experimental data reported in US20210267203A1, “PESTICIDALLY ACTIVE AZOLE-AMIDE COMPOUNDS” (SYNGENTA PARTICIPATIONS AG, priority 2018, published 2021).

Legend:
Type in all cases: in vivo
[1] = tested on: Diabrotica Balteata (Corn Root Worm); assay: Example B1: Diabrotica balteata (corn root worm), maize sprouts sprayed, L2 larvae; conditions: 96 h, application rate 200 ppm, 4 days after infestation, read-out: effect in at least one of the two categories (mortality or growth inhibition)
Procedure: Example B1: Diabrotica Balteata (Corn Root Worm)
Maize sprouts placed onto an agar layer in 24-well microtiter plates were treated with aqueous test solutions prepared from 10,000 ppm DMSO stock solutions by spraying. After drying, the plates were infested with L2 larvae (6 to 10 per well). The samples were assessed for mortality and growth inhibition in comparison to untreated samples 4 days after infestation.
(§1) The following compounds gave an effect of at least 80% in at least one of the two categories (mortality or growth inhibition) at an application rate of 200 ppm: […]

[2] = tested on: Euschistus heros (Neotropical Brown Stink Bug); assay: Example B2: Euschistus heros (neotropical brown stink bug), soybean leaves sprayed, N2 nymphs; conditions: 120 h, application rate 200 ppm, 5 days after infestation, read-out: effect in at least one of the two categories (mortality or growth inhibition)
Procedure: Example B2: Euschistus heros (Neotropical Brown Stink Bug)
Soybean leaves on agar in 24-well microtiter plates were sprayed with aqueous test solutions prepared from 10,000 ppm DMSO stock solutions. After drying the leaves were infested with N2 nymphs. The samples were assessed for mortality and growth inhibition in comparison to untreated samples 5 days after infestation.
as §1

[3] = tested on: Plutella xylostella (Diamond Back Moth); assay: Example B5: Plutella xylostella (diamond back moth), artificial diet, 24-well, eggs; conditions: 192 h, application rate 200 ppm, 8 days after infestation, read-out: effect in at least one of the two categories (mortality or growth inhibition)
Procedure: Example B5: Plutella xylostella (Diamond Back Moth)
24-well microtiter plates with artificial diet were treated with aqueous test solutions prepared from 10,000 ppm DMSO stock solutions by pipetting. After drying, Plutella eggs were pipetted through a plastic stencil onto a gel blotting paper and the plate was closed with it. The samples were assessed for mortality and growth inhibition in comparison to untreated samples 8 days after infestation. The following compounds gave an effect of at least 80% in at least one of the two categories (mortality or growth inhibition) at an application rate of 200 ppm: […]

[4] = tested on: Myzus persicae (Green Peach Aphid); assay: Example B6: Myzus persicae (green peach aphid), feeding/contact activity; conditions: 144 h, application rate 200 ppm, 6 days after infestation
Procedure: Example B6: Myzus persicae (Green Peach Aphid):Feeding/Contact Activity
Sunflower leaf discs were placed onto agar in a 24-well microtiter plate and sprayed with aqueous test solutions prepared from 10,000 ppm DMSO stock solutions. After drying, the leaf discs were infested with an aphid population of mixed ages. The samples were assessed for mortality 6 days after infestation.

[5] = tested on: Myzus persicae (Green Peach Aphid); assay: Example B8: Myzus persicae (green peach aphid), intrinsic activity; conditions: 120 h, test rate 12 ppm, sucrose solution, 24-well, 5 days after infestation
Text: Example B8: Myzus persicae (Green Peach Aphid), Intrinsic Activity
Test compounds prepared from 10,000 ppm DMSO stock solutions were applied by pipette into 24-well microtiter plates and mixed with sucrose solution. The plates were closed with a stretched Parafilm. A plastic stencil with 24 holes was placed onto the plate and infested pea seedlings were placed directly on the Parafilm. The infested plate was closed with a gel blotting paper and another plastic stencil and then turned upside down. The samples were assessed for mortality 5 days after infestation.

[6] = tested on: Spodoptera littoralis (Egyptian Cotton Leaf Worm); assay: Example B9: Spodoptera littoralis (Egyptian cotton leaf worm), cotton leaf discs sprayed, L1 larvae; conditions: foliar, 72 h, application rate 200 ppm, 3 days after infestation
Procedure: Example B9: Spodoptera littoralis (Egyptian Cotton Leaf Worm)
Cotton leaf discs were placed onto agar in 24-well microtiter plates and sprayed with aqueous test solutions prepared from 10,000 ppm DMSO stock solutions. After drying the leaf discs were infested with five L1 larvae. The samples were assessed for mortality, anti-feeding effect, and growth inhibition in comparison to untreated samples 3 days after infestation. Control of Spodoptera littoralis by a test sample is given when at least one of the three categories (i.e. mortality, anti-feedant effect, and growth inhibition) is higher than the untreated sample.

[7] = tested on: Myzus persicae (Green Peach Aphid); assay: Example B13: activity against Myzus persicae (green peach aphid), 96-well sucrose solution; conditions: 120 h, application rate 50 ppm, 5 days after infestation
Text: Example B13: Activity Against Myzus persicae (Green Peach Aphid)
Test compounds prepared from 10,000 ppm DMSO stock solutions were applied by a liquid handling robot into 96-well microtiter plates and mixed with a sucrose solution. Parafilm was stretched over the 96-well microtiter plate and a plastic stencil with 96 holes was placed onto the plate. Aphids were sieved into the wells directly onto the Parafilm. The infested plates were closed with a gel blotting card and a second plastic stencil and then turned upside down. The samples were assessed for mortality 5 days after infestation.

[8] = tested on: Plutella xylostella (Diamondback Moth); assay: Example B14: activity against Plutella xylostella (diamondback moth), 96-well artificial diet; conditions: 216 h, application rate 500 ppm, 9 days after infestation
Procedure: Example B14: Activity Against Plutella xylostella (Diamondback Moth)
96-well microtiter plates containing artificial diet were treated with aqueous test solutions, prepared from 10,000 ppm DMSO stock solutions, by a liquid handling robot. After drying, eggs (30 per well) were infested onto a netted lid which was suspended above the diet. The eggs hatch and L1 larvae move down to the diet. The samples were assessed for mortality 9 days after infestation.
The following compounds gave an effect of at least 80% average mortality at an application rate of 500 ppm: […]

[9] = tested on: Chilo suppressalis (Striped Rice Stemborer); assay: Example B4: Chilo suppressalis (striped rice stemborer), artificial diet, L2 larvae; conditions: 144 h, application rate 200 ppm, 6 days after infestation
Procedure: Example B4: Chilo suppressalis (Striped Rice Stemborer)
24-well microtiter plates with artificial diet were treated with aqueous test solutions prepared from 10,000 ppm DMSO stock solutions by pipetting. After drying, the plates were infested with L2 larvae (6-8 per well). The samples were assessed for mortality, anti-feeding effect, and growth inhibition in comparison to untreated samples 6 days after infestation. Control of Chilo suppressalis by a test sample is given when at least one of the categories (i.e. mortality, anti-feedant effect, and growth inhibition) is higher than the untreated sample.

CC(NC(=O)c1cc(C2CC2)cc(C(F)(F)F)c1)c1ncnn1-c1ncccn1 (stereo not drawn) [P24, 3-cyclopropyl-N-[1-(2-pyrimidin-2-yl-1,2,4-triazol-3-yl)ethyl]-5-(trifluoromethyl)benzamide]
≥ 80%: percent effect (mortality or growth inhibition) at 200 ppm [1] | percent effect (mortality or growth inhibition) at 200 ppm [2] | percent effect (mortality or growth inhibition) at 200 ppm [3] | mortality at 200 ppm [4] | mortality at 12 ppm [5] | percent control (mortality, anti-feedant effect or growth inhibition) at 200 ppm [6] | mortality at 50 ppm [7] | mortality at 500 ppm [8]

CC(NC(=O)c1cc(OCC(F)F)cc(C2CC2)c1)c1ncnn1-c1ncccn1 (stereo not drawn) [P61, 3-cyclopropyl-5-(2,2-difluoroethoxy)-N-[1-(2-pyrimidin-2-yl-1,2,4-triazol-3-yl)ethyl]benzamide]
≥ 80%: percent effect (mortality or growth inhibition) at 200 ppm [2] | percent control (mortality, anti-feedant effect or growth inhibition) at 200 ppm [9] | percent effect (mortality or growth inhibition) at 200 ppm [3] | mortality at 200 ppm [4] | mortality at 12 ppm [5] | percent control (mortality, anti-feedant effect or growth inhibition) at 200 ppm [6]

CC(NC(=O)c1cc(-c2ccccc2C(F)(F)F)cc(C(F)(F)F)c1)c1ncnn1-c1ncccn1 (stereo not drawn) [P69, N-[1-(2-pyrimidin-2-yl-1,2,4-triazol-3-yl)ethyl]-3-(trifluoromethyl)-5-[2-(trifluoromethyl)phenyl]benzamide]
≥ 80%: percent effect (mortality or growth inhibition) at 200 ppm [1] | percent control (mortality, anti-feedant effect or growth inhibition) at 200 ppm [9] | percent effect (mortality or growth inhibition) at 200 ppm [3] | percent control (mortality, anti-feedant effect or growth inhibition) at 200 ppm [6] | mortality at 50 ppm [7]

C[C@@H](c1ncnn1-c1ncccn1)N(CC1CC1)C(=O)c1cc(C2CC2)cc(C(F)(F)F)c1 [P73, 3-cyclopropyl-N-(cyclopropylmethyl)-N-[(1S)-1-(2-pyrimidin-2-yl-1,2,4-triazol-3-yl)ethyl]-5-(trifluoromethyl)benzamide]
≥ 80%: percent effect (mortality or growth inhibition) at 200 ppm [1] | percent effect (mortality or growth inhibition) at 200 ppm [2] | percent control (mortality, anti-feedant effect or growth inhibition) at 200 ppm [9] | percent effect (mortality or growth inhibition) at 200 ppm [3] | mortality at 200 ppm [4] | mortality at 12 ppm [5] | percent control (mortality, anti-feedant effect or growth inhibition) at 200 ppm [6]

CC(NC(=O)c1cc(C(F)(F)F)cc(C(C)(C)C#N)c1)c1ncnn1-c1ccccn1 (stereo not drawn) [P75, 3-(1-cyano-1-methyl-ethyl)-N-[1-[2-(2-pyridyl)-1,2,4-triazol-3-yl]ethyl]-5-(trifluoromethyl)benzamide]
≥ 80%: percent effect (mortality or growth inhibition) at 200 ppm [1] | percent control (mortality, anti-feedant effect or growth inhibition) at 200 ppm [9] | percent effect (mortality or growth inhibition) at 200 ppm [3] | mortality at 12 ppm [5] | percent control (mortality, anti-feedant effect or growth inhibition) at 200 ppm [6]

Cc1nc(C(C)NC(=O)c2cc(C(F)(F)F)cc(C(C)(C)C#N)c2)n(-c2ncc(Br)cn2)n1 (stereo not drawn) [P77, N-[1-[2-(5-bromopyrimidin-2-yl)-5-methyl-1,2,4-triazol-3-yl]ethyl]-3-(1-cyano-1-methyl-ethyl)-5-(trifluoromethyl)benzamide]
≥ 80%: percent effect (mortality or growth inhibition) at 200 ppm [1] | percent effect (mortality or growth inhibition) at 200 ppm [2] | percent control (mortality, anti-feedant effect or growth inhibition) at 200 ppm [9] | percent effect (mortality or growth inhibition) at 200 ppm [3] | mortality at 12 ppm [5] | percent control (mortality, anti-feedant effect or growth inhibition) at 200 ppm [6]

Cc1nc(C(C)NC(=O)c2cc(C3CC3)cc(C(F)(F)F)c2)n(-c2ncc(Br)cn2)n1 (stereo not drawn) [P80, N-[1-[2-(5-bromopyrimidin-2-yl)-5-methyl-1,2,4-triazol-3-yl]ethyl]-3-cyclopropyl-5-(trifluoromethyl)benzamide]
≥ 80%: percent effect (mortality or growth inhibition) at 200 ppm [1] | percent effect (mortality or growth inhibition) at 200 ppm [2] | percent control (mortality, anti-feedant effect or growth inhibition) at 200 ppm [9] | percent effect (mortality or growth inhibition) at 200 ppm [3] | percent control (mortality, anti-feedant effect or growth inhibition) at 200 ppm [6]

CC(NC(=O)c1cc(C2CC2)cc(C(F)(F)F)c1)c1ncnn1-c1ncc(Br)cn1 (stereo not drawn) [P81, N-[1-[2-(5-bromopyrimidin-2-yl)-1,2,4-triazol-3-yl]ethyl]-3-cyclopropyl-5-(trifluoromethyl)benzamide]
≥ 80%: percent effect (mortality or growth inhibition) at 200 ppm [1] | percent effect (mortality or growth inhibition) at 200 ppm [2] | percent control (mortality, anti-feedant effect or growth inhibition) at 200 ppm [9] | percent effect (mortality or growth inhibition) at 200 ppm [3] | percent control (mortality, anti-feedant effect or growth inhibition) at 200 ppm [6]

Cc1nc(C(C)NC(=O)c2cc(C3CC3)cc(C(F)(F)F)c2)n(-c2ncccn2)n1 (stereo not drawn) [P86, 3-cyclopropyl-N-[1-(5-methyl-2-pyrimidin-2-yl-1,2,4-triazol-3-yl)ethyl]-5-(trifluoromethyl)benzamide]
≥ 80%: percent effect (mortality or growth inhibition) at 200 ppm [1] | percent effect (mortality or growth inhibition) at 200 ppm [2] | percent control (mortality, anti-feedant effect or growth inhibition) at 200 ppm [9] | percent effect (mortality or growth inhibition) at 200 ppm [3] | mortality at 12 ppm [5] | percent control (mortality, anti-feedant effect or growth inhibition) at 200 ppm [6]

CC(NC(=O)c1cc(C(F)(F)F)cc(C2(C)CC2(F)F)c1)c1ncnn1-c1ncccn1 (stereo not drawn) [P88, 3-(2,2-difluoro-1-methyl-cyclopropyl)-N-[1-(2-pyrimidin-2-yl-1,2,4-triazol-3-yl)ethyl]-5-(trifluoromethyl)benzamide]
≥ 80%: percent effect (mortality or growth inhibition) at 200 ppm [1] | percent effect (mortality or growth inhibition) at 200 ppm [2] | percent control (mortality, anti-feedant effect or growth inhibition) at 200 ppm [9] | percent effect (mortality or growth inhibition) at 200 ppm [3] | mortality at 12 ppm [5] | percent control (mortality, anti-feedant effect or growth inhibition) at 200 ppm [6] | mortality at 50 ppm [7]
